{
  "source": "patent US9265739B2",
  "about": "“Methods and use of compounds that bind to HER2/neu receptor complex” (The Trustees Of The University Of Pennsylvania, priority 2010, dated 2016)",
  "key": {"[1]": {"test_system": "T6-17 cells", "assay": "MTT cell proliferation assay, T6-17 cells", "format": "cell-based, murine", "details": "indicated doses, three days, FIG. 3", "excerpt": "(§1) The activity of S22-57 in cell proliferation assays using different cell lines was examined. T6-17 is a murine cell line engineered to express human HER2/neu. […] HBL100 is an immortalized human breast cancer cell line. XHT-1-1A are mouse NIH3T3 cells transformed by Harvey-RAS (XHT-1-1a) previously developed and used (Drebin, et al., Cell 41, 697-706 (1985)). Both HBL100 and XHT-1-1A are used as controls. To measure cell proliferation, we used the modified 3-[4,5-dimethylthiazol-2-yl]-2,5-diphenyl tetrazolium bromide (MTT) assay as previously described (Masuda, et al., Oncogene 25, 7740-7746 (2006)). Cells (2000-5000 cells/well) were seeded in 96-well plates in the presence of inhibitors with different concentration and incubated at 37° C. in a humidified 5% CO2 atmosphere. After 72 h, cells were incubated in fresh medium for another 4 hours before a total of 25 μl of MTT solution (5 mg/ml in PBS) was added to each well, and after 2 h of incubation at 37° C., 100 μl of the extraction buffer (20% w/v SDS, 50% N,N-dimethyl formamide, pH 4.7) was added. After an overnight incubation at 37° C., the optical density at 570 nm was measured using a Tecan ELISA reader. […] Proliferation of cells was measured by the MTT assay."}, "[2]": {"test_system": "HC1 cells", "assay": "MTT cell proliferation assay, HC1 cells", "format": "cell-based, human", "details": "indicated doses, three days, FIG. 3", "excerpt": "as §1"}, "[3]": {"test_system": "SK-BR-3 cells", "assay": "Soft agar colony growth screening, SK-BR-3 cells", "format": "cell-based", "details": "soft agar colonies counted on day 21, relative to DMSO control, p<0.05, FIG. 1/2", "description": "(§2) Targeted molecules were screened in vitro for anti-tumor activity using a modified […] growth of transformed cell assay, as described in Fukazawa et al. (1995), Anal. Biochem., 10:83-90. Anchorage-independent growth capability is perhaps the best indicator of the malignant phenotype and is determined by efficiency of cells to form colonies in soft agar (Drebin, et al., Cell 41, 697-706 (1985)). All experiments were conducted in 6 cm dishes in triplicate. Agar bottom layers consisted of 3 ml 0.25% agarose/DMEM (Dulbecco's Modified Eagle Medium) supplemented with 10% FBS (Fetal Bovine Serum), 2 mM L-glutamine, and 100 u/ml Penicillin/1 μg/ml Streptomycin. About 1000-2000 cells T6-17/SK-BR-3 are layered on the top in 1 ml 0.18% agarose/DMEM, 10% FBS, 2 mM L-glutamine, and 100 μ/ml Penicillin/1 μg/ml Streptomycin. Cultures were treated every 3 days with 0.5 ml of supplemented DMEM containing measured amounts of the Her2 inhibitors, or DMSO (dimethyl sulfoxide) alone. On the day before the colonies were counted, the samples were incubated with 1 ml of Hank's Balanced Salt Solution containing 1 mg/ml p-iodonitrotetrazolium violet (INT, Sigma) to stain colonies. The next day, colonies were counted using a 7× achromatic magnifying eyepiece (Bausch and Lomb). Triplicate cultures were counted on day 21 and will be verified by at least two different persons. […]"}, "[4]": {"test_system": "HER2 (phosphorylation at Y877)", "assay": "Inhibition of HER2 phosphorylation in HC1 cells (western blot)", "format": "cell-based, human", "details": "serum-starved HC1 cells, inhibitor 1 hour, EGF 50 ng/ml 10 minutes, FIG. 4", "description": "The effect of S22-57 was also examined in the cetuximab-resistant non-small cell lung cancer cell line HC1. Confluent HC1 cells were first serum starved for 24 hours before exposed to inhibitors as indicated for 1 hour. Cells were then stimulated by EGF (50 ng/ml) for 10 minutes. […] Both antibodies were purchased from Cell Signaling."}, "[5]": {"test_system": "T6-17 cells", "assay": "Soft agar colony growth screening, T6-17 cells", "format": "cell-based, murine", "details": "soft agar colonies counted on day 21, relative to DMSO control, p<0.05, FIG. 1/2", "description": "as §2"}},
  "data": [
    {"smiles": "O=C(CCc1cc(C(F)(F)F)cc(C(F)(F)F)c1)NN/C=C1\\C=C(Cl)C=C(Cl)C1=O", "note": "[S22-57]", "values": [
      {"measurement": "inhibition of proliferation of T6-17 cells", "setting": "[1]", "value": "inhibited T6-17 and HC1 dose-dependently"},
      {"measurement": "inhibition of proliferation of HC1 cells", "setting": "[2]", "value": "inhibited T6-17 and HC1 dose-dependently"},
      {"measurement": "effect on SK-BR-3 cell proliferation (colony growth in culture)", "setting": "[3]", "value": "reduced cellular growth in culture relative to DMSO control"},
      {"measurement": "EGF-stimulated phosphorylation of HER2 at Y877", "setting": "[4]", "value": "inhibited"},
      {"measurement": "effect on T6-17 cell proliferation (colony growth in culture)", "setting": "[5]", "value": "reduced cellular growth in culture relative to DMSO control"}
    ]}
  ]
}
